Test results published in ChEMBL document CHEMBL3872260, “Influence of chain length on the activity of tripeptidomimetic antagonists for CXC chemokine receptor 4 (CXCR4)” (Bioorg Med Chem, 2017).

Target: C-X-C chemokine receptor type 4 (Homo sapiens, UniProt P61073)
Experiment: Antagonist activity at wild-type human CXCR4 expressed in COS7 cells co-expressing chimeric galphai assessed as inhibition of CXCL12-induced [3H]inositol-phosphate accumulation measured after 90 mins in presence of Myo-[2-3H]-inositol by scintillation proximity assay
Type: functional, cell-based, COS-7

C-X-C chemokine receptor type 4, sequence (P61073 whole entry): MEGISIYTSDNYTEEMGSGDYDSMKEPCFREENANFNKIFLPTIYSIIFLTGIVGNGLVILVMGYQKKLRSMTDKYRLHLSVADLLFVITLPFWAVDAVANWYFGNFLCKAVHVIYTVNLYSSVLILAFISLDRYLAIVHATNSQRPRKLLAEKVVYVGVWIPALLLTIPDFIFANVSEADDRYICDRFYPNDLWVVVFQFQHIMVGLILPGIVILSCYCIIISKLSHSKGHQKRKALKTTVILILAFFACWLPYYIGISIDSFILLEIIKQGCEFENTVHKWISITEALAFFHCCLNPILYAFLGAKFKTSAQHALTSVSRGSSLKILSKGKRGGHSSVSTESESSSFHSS

SMILES | EC50 (read-out: EC50) | EC50 (read-out: pEC50 (converted))
N=C(N)NCCC[C@H]1C(=O)N(CCc2ccc3ccccc3c2)C[C@@H]2SC[C@H](CCNC(=N)N)C(=O)N21 | > 100 µM | < 100 µM
N=C(N)NCCCC[C@H]1C(=O)N(CCc2ccc3ccccc3c2)C[C@H]2SC[C@@H](CCNC(=N)N)C(=O)N21 | > 100 µM | < 100 µM
N=C(N)NCCCC[C@H]1C(=O)N(CCc2ccc3ccccc3c2)C[C@@H]2SC[C@H](CCNC(=N)N)C(=O)N21 | > 100 µM | < 100 µM
N=C(N)NCCC[C@H]1C(=O)N(CCc2ccc3ccccc3c2)C[C@H]2SC[C@@H](CCNC(=N)N)C(=O)N21 | > 100 µM | –
N=C(N)NCCCC1CSC2CN(Cc3ccc4ccccc4c3)C(=O)[C@H](CCCNC(=N)N)N2C1=O (mixture of isomers) | > 100 µM | < 100 µM
N=C(N)NCCCC1CSC2CN(Cc3cccc4ccccc34)C(=O)[C@H](CCCNC(=N)N)N2C1=O (mixture of isomers) | > 100 µM | –
N=C(N)NCCCC1CSC2CN(Cc3ccc4ccccc4c3Br)C(=O)[C@H](CCCNC(=N)N)N2C1=O (mixture of isomers) | 61 µM | –

Results, then the compound that gave them:

EC50 (read-out: EC50) | EC50 (read-out: pEC50 (converted)) | SMILES
> 100 µM | < 100 µM | N=C(N)NCCCC[C@@H]1CS[C@@H]2CN(CCc3ccc4ccccc4c3)C(=O)[C@H](CCCNC(=N)N)N2C1=O
> 100 µM | < 100 µM | N=C(N)NCCCC[C@H]1C(=O)N(CCc2ccc3ccccc3c2)C[C@H]2SC[C@@H](CCCNC(=N)N)C(=O)N21
> 100 µM | – | N=C(N)NCCCC[C@H]1C(=O)N(CCc2ccc3ccccc3c2)C[C@@H]2SC[C@H](CCCNC(=N)N)C(=O)N21
> 100 µM | < 100 µM | N=C(N)NCCCC[C@H]1CS[C@H]2CN(CCc3ccc4ccccc4c3)C(=O)[C@H](CCCNC(=N)N)N2C1=O
